{"source": "patent US20040116346A1", "about": "“Affinity small molecules for the EPO receptor” (priority 2002, published 2004)", "key": {"[1]": {"tested_on": "cortical neurons isolated from embryonic day 18 rats", "assay": "glutamate-induced neuronal death in cultured cortical neurons", "format": "cell-based, rat", "conditions": "24 hours pre-treatment, 300 uM glutamate for 24 hours", "experimental": "Primary cultured cells were used as a model to evaluate the subject small molecule effect on CNS. Glutamate neurotoxicity can be most directly studied using neurons prepared from the brain at the late embryonic stage and subsequently cultured for maturation. To examine the effect of the subject small molecules (E5A24 and E5A29) on glutamate-induced neuronal death, cortical neurons isolated from embryonic day 18 rats, were cultured for 10 days. Subsequently, neurons were treated for 24 hours with or without the subject small molecules, and further exposed to 300 uM glutamate for 24 hours. After glutamate was washed out, the cells were cultured for another 24 hours. During the glutamate challenge and subsequent culture, the subject small molecules were absent. Finally, the cell viability was examined."}, "TF-1 and UT-7 cells": {"tested_on": "TF-1 and UT-7 cells", "assay": "biological testing in cell lines (cell proliferation assay and cell signaling assay)", "format": "cell-based", "text": "Compounds identified in the initial screen were further tested for their biological activity in two assays: a cell proliferation assay and a cell signaling assay in TF-1 and UT-7 cells. The hit rate in cell proliferation was 0.16%; hit rate in cell signaling was 0.25%.\nAt the end of the biological testing in cell lines TF-1 and UT-7, E4, E5, E5 analogs and E6 molecules were some of the compounds identified as showing the best activity.\nCompounds identified in the initial screen were further tested for their biological activity in two assays: a cell proliferation assay and a cell signaling assay in TF-1 cells. The hit rate in cell proliferation was 0.16%; hit rate in cell signaling was 0.25%.\nAt the end of the biological testing in cell line, E4, E5, E5 analog, and E6 molecules were some of the compounds identified as showing the best activity."}, "[2]": {"tested_on": "Mouse or human bone marrow cells", "assay": "Formation of erythroid colonies (CFU-e, BFU-e) from bone marrow in methylcellulose", "format": "cell-based", "conditions": "mouse and human bone marrow", "experimental": "Mouse or human bone marrow cells were stimulated in methylcellulose for 7 days (mouse) or 14 days (human) with non-peptide EPO-R modulators. Formation of erythroid colonies was observed. (See FIGS. 6 to 8)\n(1) Dilute human bone marrow 1:1 with sterile PBS. (2) Slowly layer bone marrow into 50 ml tubes containing 20 ml of LSM Lymphocyte separation medium (ICN/Cappel—cat #50494). 50 ml bone marrow will yield 2 tubes. (3) Spin tubes at 2000 rpm for 30 minutes with brake off. (4) Slowly take out the middle layer using a 10 ml pipette and transfer into a new 50 ml tube. (5) Add PBS +0.5% BSA +5 mM EDTA to tube for washing. (6) Spin tube for 5 minutes at speed 4 with brake on. (7) Repeat wash step 2 more times. (8) After 3rd wash, resuspend pellet in SF Iscoves' MDM medium. (9) Count by diluting cells in 3% acetic acid. (10) Dilute cells to desired concentration (5×10^5 cells/ml) and seed onto methylcellulose.\n(1) Tubes containing 3.0 ml of methylcellulose medium (Stemcell Technology, cat #H4230) supplemented with 50 ng/ml hSCF are prepared. (Alternatively the methylcellulose could be supplemented with 50 ng/ml hSCF, 20 ng/ml of hIL-3 and hIL-6). (2) Compounds or EPO of desired concentrations are added to the tubes. […] Colonies are scored on day twelve.\nBone marrow cells were isolated from mouse femurs. […] The colonies were scored on day seven. […]"}, "[3]": {"tested_on": "carboplatin-treated 8 week old C57BL mice", "assay": "Carboplatin induced anemia model (hematocrit)", "format": "in vivo, mouse", "experimental": "Mice were treated with Carboplatin agent (available from Sigma, used regularly in chemotherapy) and a drop in hematocrit was induced. […] (FIGS. 9-11)\nDetermination of Effect of Non-peptide EPO-R Binding Small Molecule on Hematocrit in Carboplatin-Induced Anemia in 8 Week C57BI Male Mice\nPreparation of injection solutions: Vehicle—Saline with 0.1 mg/mL BSA; Add 30 mg of BSA to 300 mL Saline; Vacuum filter under sterile conditions in laminar flow hood; Aliquot the saline (0.1 mg/mL BSA) solution into mini-sorp tubes. At least 41×7 mL aliquots should be prepared. Place caps on the tubes and store refrigerated at 4° C.;\nCarboplatin—Dose of 120 mg/kg: Calculations for single injection given to 36 male mice (8 wks old˜25 g): […]×0.025 kg×36 mice=108 mg; Injections are delivered i.p. in a volume of 0.5 cc/mouse=0.5 cc/mouse×36 mice=18 cc; Carboplatin at 6 mg/mL for 36 mice: 108 mg/18 cc.; 120 mg/20 cc; On day of injection, add 120 mg carboplatin (Sigma #C2538) to 20 cc saline in a 100 cc beaker containing a stirring bar. Cover beaker with parafilm. Mix until the carboplatin has completely dissolved.\n11 nmole/kg/mouse/day×0.025 kg×12 mice=3.3 nmoles/day; Injections are delivered i.p. in a volume of 0.5 cc/mouse/day=0.5 cc/mouse/day×12 mice=6 cc/day; non-peptide EPO-R binding small molecule for […]: 3.3 nmoles/6 cc each day: 3.85 nmole/7 cc each day; non-peptide EPO-R binding small molecule aliquot at 2 mM=2 nmole/uL; 3.85 nmole per day in 7 cc (0.55 nmole/mL); Therefore: 3.85 nmole divided by 2 nmole/uL stock=1.925 uL at 2 mM; Prepare in advance at least 10 aliquots of non-peptide EPO-R binding small molecule at 2 mM in small microfuge tubes, each with a volume of 2 uL. Freeze these aliquots; On each day of injections, add 1 thawed aliquot of the non-peptide EPO-R binding small molecule at 2 mM containing a 2 uL volume to a tube containing 7 cc of sterile saline (0.1 mg/mL BSA). […]"}, "[4]": {"tested_on": "Bcl-xL protein in UT-7 and TF-1 cells", "assay": "up-regulation of Bcl-xL expression (immunoprecipitation, western blot)", "format": "cell-based", "experimental": "When the subject compounds were tested for anti-apoptotic effect was evaluated, these antibodies were used: Anti-Bcl-XL/s antibody (Santa Cruz Biotechnology, SC-1041), Anti-Bcl-XL antibody (Santa Cruz Biotechnology, SC8392)\nA number of molecules of the subject invention were evaluated in in vitro systems that reflect the condition of cerebral ischemia and metabolic stress. Firstly, it is known that one of the mechanisms by which EPO prevents neuronal apoptosis is by up-regulating the expression levels of Bcl-x1 protein, which is a well-described anti-apoptotic protein. Thus, cells-lines that are known to be EPO responsive (UT-7 and TF-1, used in previous studies) were used as a cellular system to examine the small molecules' anti-apoptotic activity through EPO-R.\nThe evaluation was performed by starving the cells, stimulating the cells with compounds at appropriate concentrations (or no stimulation for control samples) and immunoprecipitating the cell lysates with antibody specific to both forms (short and long) of Bcl-xL protein. The amount of Bcl-xL (long protein form, known to have anti-apoptotic activity) protein was evaluated by western blot analysis."}, "[5]": {"tested_on": "P-19 cells (a neural-like embryonal carcinoma cell line)", "assay": "anti-apoptotic effect in P-19 cells upon withdrawal of serum", "format": "cell-based", "conditions": "treated 24 hours prior to serum withdrawal; serum withdrawn for 48 hours", "experimental": "Experiments were performed according to the described protocol. The anti-apoptotic effect of the subject small molecules was evaluated in P-19 cells (a neural-like embryonal carcinoma cell line) that undergo apoptosis upon withdrawal of serum. Briefly, cells were treated with small molecules for 24 hours prior to serum withdrawal. Serum was withdrawn for 48 hours in the presence or absence of a subject small molecule (EM5 and E5A24). At the end of that period, cell survival was evaluated. […] This Figure is representative of the experiment and of the subject small molecules. The experiments were performed according to literature procedures (Siren et. al., Proc. Nat. Acad. Sci. 98, 4044, 2001). Cell survival was determined according to the protocol described for cellular proliferation."}, "EPO-R modulating domain": {"biological_target": "T1, EPO-R modulating domain (Homo sapiens, UniProt P19235)", "T1 sequence (P19235 25-508)": "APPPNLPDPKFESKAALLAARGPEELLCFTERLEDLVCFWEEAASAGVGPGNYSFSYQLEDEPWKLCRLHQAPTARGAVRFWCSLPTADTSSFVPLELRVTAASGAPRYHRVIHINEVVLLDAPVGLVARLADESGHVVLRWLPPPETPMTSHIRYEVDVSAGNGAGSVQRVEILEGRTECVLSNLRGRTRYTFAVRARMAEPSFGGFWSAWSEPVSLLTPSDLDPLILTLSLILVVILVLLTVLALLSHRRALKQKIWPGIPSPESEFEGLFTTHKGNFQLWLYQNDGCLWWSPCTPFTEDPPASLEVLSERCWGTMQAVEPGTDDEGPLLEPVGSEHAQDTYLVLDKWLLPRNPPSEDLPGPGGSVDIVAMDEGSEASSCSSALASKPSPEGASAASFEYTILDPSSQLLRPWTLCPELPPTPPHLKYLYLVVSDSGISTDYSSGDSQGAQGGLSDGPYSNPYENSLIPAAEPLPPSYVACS", "conditions": "cited from earlier work"}}, "note": "“Also recorded” adds a separate entry of the source.", "data": [{"compound": "Cc1n[nH]c2c1C(c1ccco1)C1=C(CC(C)(C)CC1=O)N2", "note": "(stereo not drawn) [Compound E5A29]", "values": [{"measurement": "cell survival / glutamate induced neuronal death", "setting": "[1]", "value": "prevented glutamate induced neuronal death in a dose-responsive manner; also recorded: increased cell survival"}, {"measurement": "increase of cell survival after glutamate challenge", "setting": "[1]", "value": 60, "unit": "%"}]}, {"compound": "Cn1ncc(S(=O)Oc2ccccc2)c(Cl)c1=O", "note": "(stereo not drawn) [Compound E6]", "values": [{"measurement": "maximum activity compared to EPO natural hormone", "setting": "TF-1 and UT-7 cells; cell line (TF-1 cells)", "value": "maximum activity comparable to that of the maximum activity of EPO"}, {"measurement": "maximum activity compared to EPO natural hormone", "setting": "TF-1 and UT-7 cells; cell lines TF-1 and UT-7, in the presence of low levels of EPO", "value": "maximum activity comparable to that of the maximum activity of EPO"}, {"measurement": "CFU-e formation compared with EPO", "setting": "[2]", "value": "stimulate CFU-e formation to the same extent as EPO"}, {"measurement": "cooperative effect with EPO on hematocrit levels", "setting": "[3]; compound given i.p.", "value": "cooperative effect"}, {"measurement": "hematocrit levels in animals treated with carboplatin", "setting": "[3]; mouse, in vivo", "value": "restore hematocrit levels"}]}, {"compound": "Cc1cc(NCC2CC2)n2nc(Nc3cc(Cl)ccc3C)nc2n1", "note": "[EM5]", "values": [{"measurement": "Bcl-xL expression", "setting": "[4]; TF-1 cells", "value": "up-regulation of Bcl-xL expression"}, {"measurement": "Bcl-xL expression", "setting": "[4]; UT-7 cells", "value": "up-regulation of Bcl-xL expression"}, {"measurement": "up-regulation of Bcl-xL protein", "setting": "[4]; both cell lines (UT-7 and TF-1)", "value": "induced up-regulation of Bcl-xL protein in a dose-responsive manner"}, {"measurement": "cell survival / viability after withdrawal of serum", "setting": "[5]", "value": "protect cells from apoptosis; also recorded: increased cell viability"}]}, {"compound": "QRVEILEGRTECVLSNLRGRTRY (listed as Homo sapiens) [SEQ ID NO:1]", "values": [{"measurement": "modulation of the activity of the EPO-R", "setting": "EPO-R modulating domain", "value": "modulation of the activity of the EPO-R in the presence or absence of the ligand"}]}]}
